Laboratory results reported in US7566550B2, “Screening method for developing drugs against pathogenic microbes having two-component system” (priority 2002, dated 2009).
“And” between values parts separate entries of the source, which are not always exact repeats. Equal values may be shown once. “Also recorded” adds a separate entry of the source.

Columns and labels:
[1] = molecular target: T1, Rv2027194 (Mycobacterium tuberculosis, UniProt P9WGK1); assay: High-throughput (96-well filter retention) autophosphorylation of sensor kinase Rv2027194 with [γ32P]ATP; type: biochemical, M. tuberculosis; settings: high-throughput format, concentration course 2.5 mM to 1 μM; read-out: concentration required to cause 50% inhibition (IC50) of the autophosphorylation of Rv2027194
T1 sequence (P9WGK1 380-573 limits assumed): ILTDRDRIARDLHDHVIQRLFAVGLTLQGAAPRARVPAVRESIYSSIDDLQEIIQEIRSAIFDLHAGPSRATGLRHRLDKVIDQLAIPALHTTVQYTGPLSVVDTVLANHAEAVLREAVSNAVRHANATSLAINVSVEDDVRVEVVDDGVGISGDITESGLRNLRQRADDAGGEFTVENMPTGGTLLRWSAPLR

[2] = molecular target: T2, DevS201 (Mycobacterium tuberculosis, UniProt P9WGK3); assay: SDS-PAGE/autoradiography assay of DevS201 autophosphorylation in presence of candidate compounds; type: biochemical, M. tuberculosis; settings: 1 mM compound, 12 μM DevS201, SDS-PAGE format
T2 sequence (P9WGK3 378-578 limits assumed): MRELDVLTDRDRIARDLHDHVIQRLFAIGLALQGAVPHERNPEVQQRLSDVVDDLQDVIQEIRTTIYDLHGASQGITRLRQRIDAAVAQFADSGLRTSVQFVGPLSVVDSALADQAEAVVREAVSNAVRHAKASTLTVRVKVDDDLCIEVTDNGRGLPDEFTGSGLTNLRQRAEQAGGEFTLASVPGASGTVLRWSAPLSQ
Protocol: FIG. 16. Inhibition of autophosphorylation of sensor kinase DevS201 by various candidate compounds. Autoradiogram of SDS-PAGE of autophosphorylation reaction products. Lane 1, levamisole HCl; lane 2, folic acid; lane 3, gly-gly-glycine; lane 4, EGTA; lane 5, bromo-phenol blue; lane 6, HABA; lane 7, ethidium bromide; lane 8, anti-DevS antibody (1 μl); lane 9, no compound. Briefly, all the mentioned compounds (1 mM final concentration) were added to 12 μM of DevS201 in reaction buffer without ATP and incubated at RT for 30 minutes after which the reaction was initiated by addition of [γ^32P]ATP and cold ATP. The reaction contents were then incubated at 25° C. for 60 minutes and were subsequently analyzed on gel as mentioned earlier.
Utilizing this knowledge a few compounds were tested for their inhibitory activity on the autophosphorylation potential of DevS sensor kinase. These included levamisole, folic acid, glycyl glycyl glycine, ethidium bromide, bromo phenol blue, 2-4-hydroxyphenylazo benzoic acid (HABA), 2-mercapto benzimidazole etc. […]
To elaborate, 12 μM of DevS201 was incubated with the aforementioned compounds in the phosphorylation reaction buffer (50 mM Tris.HCl, pH 8.0, 50 mM KCl and 25 mM MgCl2) for 30 minutes at room temperature. […] Subsequently, the reactions were terminated and analyzed on SDS-PAGE as mentioned previously.

[3] = molecular target: T2, DevS201; assay: Coomassie-stained SDS-PAGE check for aggregation of sensor kinase DevS201; parameters: species or system M. tuberculosis; settings: coomassie-stained SDS-PAGE of autophosphorylation reaction
[4] = molecular target: T1, Rv2027194; assay: Coomassie-stained SDS-PAGE check for aggregation of sensor kinase Rv2027194; parameters: species or system M. tuberculosis; settings: coomassie-stained SDS-PAGE of autophosphorylation reaction
[5] = molecular target: T2, DevS201; assay: High-throughput (96-well filter retention) autophosphorylation of sensor kinase DevS201 with [γ32P]ATP; type: biochemical, M. tuberculosis; settings: for IC50: high-throughput format, concentration course 2.5 mM to 1 μM, read-out: concentration required to cause 50% inhibition (IC50) of the autophosphorylation of DevS201
[6] = test system: tubercle bacilli; settings: replicating, static and multidrug-resistant bacilli; cited from earlier work

| SMILES | IC50 [1] | inhibition of the autophosphorylation of DevS201 (autoradiogram) [2] | aggregation of sensor kinase DevS201 in presence of compound [3] | aggregation of sensor kinase Rv2027194 in presence of compound [4] | IC50 [5] | inhibition at 2500 µM ([5]; in the presence of 2.5 mM, read-out: inhibition of DevS) [%] | activity against tubercle bacilli [6] |
| --- | --- | --- | --- | --- | --- | --- | --- |
| CC[n+]1c(-c2ccccc2)c2cc(N)ccc2c2ccc(N)cc21.[Br-] [EtBr, Phenanthridinium, 3,8-diamino-5-ethyl-6-phenyl-, bromide] | 600 to 700 µM and 500 to 1000 µM | visible inhibition | no aggregation; also recorded: did not cause aggregation | no aggregation; also recorded: did not cause aggregation | > 2500 µM | 35 |  |
| O=[N+]([O-])c1cn2c(n1)OC[C@@H](OCc1ccc(OC(F)(F)F)cc1)C2 [PA-824] |  |  |  |  |  |  | activity against both replicating and static tubercle bacilli as well as multidrug-resistant bacilli |
| Sc1nc2ccccc2[nH]1 [2-MBI, 2-mercapto benzimidazole] | 400 to 600 µM and 300 to 800 µM |  | absence of aggregate | absence of aggregate | 400 to 600 µM and 300 to 800 µM |  |  |
| O=S1(=O)OC(c2cc(Br)c(O)c(Br)c2)(c2cc(Br)c(O)c(Br)c2)c2ccccc21 [BPB, 3′,3″,5′,5″-Tetrabromophenol tetrabromosulfonapthalene] | 1500 to 1700 µM | visible inhibition | no aggregation; also recorded: did not cause aggregation | no aggregation; also recorded: did not cause aggregation | 1500 to 1700 µM |  |  |
